Test results from patent US20250282799A1, “SUBSTITUTED PYRIDO[4,3-d]PYRIMIDINES AS KRAS MODULATORS” (Alterome Therapeutics, Inc., priority 2023, published 2025).

System: KRAS G12V dependent lung adenocarcinoma cell line, NCI-H441
Test: Cellular pERK (Thr202/Tyr204) FRET/HTRF assay
Assay type: cell-based
Details: Homo sapiens, NCI-H441, cellular pERK (Thr202/Tyr204) HTRF, NCI-H441 cells
How it was run: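 NCI-H441, overnight plating → cpd 1 hr, 37 °C/5% CO2; DMSO neg ctrl. Lyse (phosphatase inhibitors), add donor/acceptor Abs, RT incubation, HTRF read. IC50 by curve fit.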

Row | Structure (SMILES) | IC50
1 | C#Cc1c(F)ccc2cc(O)cc(-c3ncc4c(N5CCOC[C@H]6[C@H](F)[C@H]65)nc(OC[C@H]5CCCN5C)nc4c3F)c12 [Example 284, 5-ethynyl-6-fluoro-4-(8-fluoro-4-((1S,7S,8S)-8-fluoro-5-oxa-2-azabicyclo[5.1.0]octan-2-yl)-2-(((R)-1-methylpyrrolidin-2-yl)methoxy)pyrido[4,3-d]pyrimidin-7-yl)naphthalen-2-ol] | < 50 nM
2 | C#Cc1c(F)ccc2cc(O)cc(-c3ncc4c(N5CCOC[C@H]6[C@H](F)[C@H]65)nc(OC[C@@H]5CCCN5C)nc4c3F)c12 [Example 285, 5-ethynyl-6-fluoro-4-(8-fluoro-4-((1S,7S,8S)-8-fluoro-5-oxa-2-azabicyclo[5.1.0]octan-2-yl)-2-(((S)-1-methylpyrrolidin-2-yl)methoxy)pyrido[4,3-d]pyrimidin-7-yl)naphthalen-2-ol] | < 50 nM
3 | [2H]C([2H])(Oc1nc(N2CCOC[C@H]3[C@H](F)[C@H]32)c2cnc(-c3cc(N)cc4ccc(F)c(C#C)c34)c(F)c2n1)[C@@]12CCCN1C[C@@H](C#N)C2 [Example 286, (2S,7aS)-7a-(((7-(3-amino-8-ethynyl-7-fluoronaphthalen-1-yl)-8-fluoro-4-((1S,7S,8S)-8-fluoro-5-oxa-2-azabicyclo[5.1.0]octan-2-yl)pyrido[4,3-d]pyrimidin-2-yl)oxy)methyl-d2)hexahydro-1H-pyrrolizine-2-carbonitrile] | < 50 nM
4 | C#Cc1c(F)ccc2cc(N)cc(-c3ncc4c(N5CCOC[C@H]6[C@H](F)[C@H]65)nc(OC[C@@]56CC[C@@H](C)N5C[C@H](F)C6)nc4c3F)c12 [Example 287, 5-Ethynyl-6-fluoro-4-(8-fluoro-2-(((2R,5R,7aS)-2-fluoro-5-methyltetrahydro-1H-pyrrolizin-7a(5H)-yl)methoxy)-4-((1S,7S,8S)-8-fluoro-5-oxa-2-azabicyclo[5.1.0]octan-2-yl)pyrido[4,3-d]pyrimidin-7-yl)naphthalen-2-amine] | < 50 nM
5 | C#Cc1c(F)ccc2cc(N)cc(-c3ncc4c(N5CCOC[C@H]6[C@H](F)[C@H]65)nc(OC[C@@H]5CCCN5C)nc4c3F)c12 [Example 288, 5-ethynyl-6-fluoro-4-(8-fluoro-4-((1S,7S,8S)-8-fluoro-5-oxa-2-azabicyclo[5.1.0]octan-2-yl)-2-(((S)-1-methylpyrrolidin-2-yl)methoxy)pyrido[4,3-d]pyrimidin-7-yl)naphthalen-2-amine] | < 50 nM
6 | [2H]C([2H])(Oc1nc(N2CCOC[C@H]3[C@H](F)[C@H]32)c2cnc(-c3cc(N)c(F)c(Cl)c3C(F)(F)F)c(F)c2n1)[C@@]12CCCN1C[C@H](F)C2 [Example 289, 3-chloro-2-fluoro-5-(8-fluoro-4-((1S,7S,8S)-8-fluoro-5-oxa-2-azabicyclo[5.1.0]octan-2-yl)-2-(((2R,7aS)-2-fluorotetrahydro-1H-pyrrolizin-7a(5H)-yl)methoxy-d2)pyrido[4,3-d]pyrimidin-7-yl)-4-(trifluoromethyl)aniline] | < 50 nM
7 | [2H]C([2H])(Oc1nc(N2CCOC[C@H]3[C@H](Cl)[C@H]32)c2cnc(-c3cccc4ccc(F)c(C#C)c34)c(F)c2n1)[C@@]12CCCN1C[C@H](F)C2 [Example 290, (1S,7S,8S)-8-chloro-2-(7-(8-ethynyl-7-fluoronaphthalen-1-yl)-8-fluoro-2-(((2R,7aS)-2-fluorotetrahydro-1H-pyrrolizin-7a(5H)-yl)methoxy-d2)pyrido[4,3-d]pyrimidin-4-yl)-5-oxa-2-azabicyclo[5.1.0]octane] | < 50 nM
8 | [2H]C([2H])(Oc1nc(N2CCOC[C@H]3[C@H](F)[C@H]32)c2c(Cl)nc(-c3cc(N)cc4ccc(F)c(C#C)c34)c(F)c2n1)[C@@]12CCCN1C[C@H](F)C2 [Example 291, 4-(5-Chloro-8-fluoro-4-((1S,7S,8S)-8-fluoro-5-oxa-2-azabicyclo[5.1.0]octan-2-yl)-2-(((2R,7aS)-2-fluorotetrahydro-1H-pyrrolizin-7a(5H)-yl)methoxy-d2)pyrido[4,3-d]pyrimidin-7-yl)-5-ethynyl-6-fluoronaphthalen-2-amine] | < 50 nM
9 | [2H]C([2H])(Oc1nc(N2CCCOC3C2C3(Cl)Cl)c2cnc(-c3cc(N)cc4ccc(F)c(C#C)c34)c(F)c2n1)[C@@]12CCCN1C[C@H](F)C2 (stereo partly drawn) [Example 292, 4-(4-(8,8-dichloro-2-oxa-6-azabicyclo[5.1.0]octan-6-yl)-8-fluoro-2-(((2R,7aS)-2-fluorotetrahydro-1H-pyrrolizin-7a(5H)-yl)methoxy-d2)pyrido[4,3-d]pyrimidin-7-yl)-5-ethynyl-6-fluoronaphthalen-2-amine] | 50 to 500 nM
10 | C#Cc1c(Cl)ccc2cc(O)cc(-c3ncc4c(N5CCOC[C@H]6[C@H](F)[C@H]65)nc(OC[C@@H]5CCCN5C)nc4c3F)c12 [Example 294, 6-chloro-5-ethynyl-4-(8-fluoro-4-((1S,7S,8S)-8-fluoro-5-oxa-2-azabicyclo[5.1.0]octan-2-yl)-2-(((S)-1-methylpyrrolidin-2-yl)methoxy)pyrido[4,3-d]pyrimidin-7-yl)naphthalen-2-ol] | < 50 nM
11 | C#Cc1cccc2cc(O)cc(-c3ncc4c(N5CCOC[C@H]6[C@H](F)[C@H]65)nc(OC[C@@H]5CCCN5C)nc4c3F)c12 [Example 295, 5-ethynyl-4-(8-fluoro-4-((1S,7S,8S)-8-fluoro-5-oxa-2-azabicyclo[5.1.0]octan-2-yl)-2-(((S)-1-methylpyrrolidin-2-yl)methoxy)pyrido[4,3-d]pyrimidin-7-yl)naphthalen-2-ol] | < 50 nM
12 | C#Cc1c(Cl)ccc2cc(N)cc(-c3ncc4c(N5CCOC[C@H]6[C@H](F)[C@H]65)nc(OC[C@@H]5CCCN5C)nc4c3F)c12 [Example 296, 6-chloro-5-ethynyl-4-(8-fluoro-4-((1S,7S,8S)-8-fluoro-5-oxa-2-azabicyclo[5.1.0]octan-2-yl)-2-(((S)-1-methylpyrrolidin-2-yl)methoxy)pyrido[4,3-d]pyrimidin-7-yl)naphthalen-2-amine] | < 50 nM
13 | C#Cc1cccc2cc(N)cc(-c3ncc4c(N5CCOC[C@H]6[C@H](F)[C@H]65)nc(OC[C@@H]5CCCN5C)nc4c3F)c12 [Example 297, 5-ethynyl-4-(8-fluoro-4-((1S,7S,8S)-8-fluoro-5-oxa-2-azabicyclo[5.1.0]octan-2-yl)-2-(((S)-1-methylpyrrolidin-2-yl)methoxy)pyrido[4,3-d]pyrimidin-7-yl)naphthalen-2-amine] | < 50 nM
14 | [2H]C([2H])(Oc1nc(N2CCOC[C@H]3[C@H](F)[C@H]32)c2cnc(-c3cc(O)cc(Cl)c3C(F)(F)F)c(F)c2n1)[C@@]12CCCN1C[C@H](F)C2 [Example 298, 3-chloro-5-(8-fluoro-4-((1S,7S,8S)-8-fluoro-5-oxa-2-azabicyclo[5.1.0]octan-2-yl)-2-(((2R,7aS)-2-fluorotetrahydro-1H-pyrrolizin-7a(5H)-yl)methoxy-d2)pyrido[4,3-d]pyrimidin-7-yl)-4-(trifluoromethyl)phenol] | < 50 nM
15 | [2H]C([2H])(Oc1nc(N2CCOC[C@H]3[C@H](F)[C@H]32)c2cnc(-c3cc(N)c(F)cc3C(F)(F)F)c(F)c2n1)[C@@]12CCCN1C[C@H](F)C2 [Example 299, 2-fluoro-5-(8-fluoro-4-((1S,7S,8S)-8-fluoro-5-oxa-2-azabicyclo[5.1.0]octan-2-yl)-2-(((2R,7aS)-2-fluorotetrahydro-1H-pyrrolizin-7a(5H)-yl)methoxy-d2)pyrido[4,3-d]pyrimidin-7-yl)-4-(trifluoromethyl)aniline] | 50 to 500 nM
